Experimental data reported in patent US20230157952A1, “METHOD FOR IMPROVING THE STABILITY OF A PHARMACEUTICAL COMPOSITION COMPRISING A HIGH PENETRATION DRUG, AND THE PHARMACEUTICAL COMPOSITION OBTAINED THEREFROM” (Techfields Inc., priority 2020, published 2023).

Assay: Effect of solvent on the stability of the solution (purity at various pH values and temperature)
Type: physicochemical
Conditions: 7% solution

## CCN(CC)CCOC(=O)c1ccccc1OC(C)=O.Cl
Solvent 25% ethanol, pH 8.0, day 14, 60° C.
  Purity (%) at day 14 (60° C.): 0%
Solvent 50% ethanol, pH 1.0, day 0
  Purity(%) at day 0: 99.2 ± 0.3%
Solvent 50% ethanol, pH 1.0, day 14, 5° C.
  Purity(%) at day 14 (5° C.): 92.4 ± 0.3%
Solvent 50% ethanol, pH 1.0, day 14, 25° C.
  Purity(%) at day 14 (25° C.): 63.8 ± 0.4%
Solvent 50% ethanol, pH 1.0, day 14, 40° C.
  Purity(%) at day 14 (40° C.): 0%
Solvent 50% ethanol, pH 1.0, day 14, 60° C.
  Purity (%) at day 14 (60° C.): 0%
Solvent 50% ethanol, pH 2.0, day 0
  Purity(%) at day 0: 99.5 ± 0.2%
Solvent 50% ethanol, pH 2.0, day 14, 5° C.
  Purity(%) at day 14 (5° C.): 96.9 ± 0.3%
Solvent 50% ethanol, pH 2.0, day 14, 25° C.
  Purity(%) at day 14 (25° C.): 84.7 ± 0.3%
Solvent 50% ethanol, pH 2.0, day 14, 40° C.
  Purity(%) at day 14 (40° C.): 0%
Solvent 50% ethanol, pH 2.0, day 14, 60° C.
  Purity (%) at day 14 (60° C.): 0%
Solvent 50% ethanol, pH 3.0, day 0
  Purity(%) at day 0: 99.6 ± 0.3%
Solvent 50% ethanol, pH 3.0, day 14, 25° C.
  Purity(%) at day 14 (25° C.): 89.5 ± 0.3%
Solvent 50% ethanol, pH 3.0, day 14, 40° C.
  Purity(%) at day 14 (40° C.): 3.2 ± 0.3%
Solvent 50% ethanol, pH 3.0, day 14, 60° C.
  Purity (%) at day 14 (60° C.): 0%
Solvent 50% ethanol, pH 3.7, day 0
  Purity(%) at day 0: 99.7 ± 0.2%
Solvent 50% ethanol, pH 3.7, day 14, 5° C.
  Purity(%) at day 14 (5° C.): 99.1 ± 0.3%
Solvent 50% ethanol, pH 3.7, day 14, 25° C.
  Purity(%) at day 14 (25° C.): 96.6 ± 0.2%
Solvent 50% ethanol, pH 3.7, day 14, 40° C.
  Purity(%) at day 14 (40° C.): 16.9 ± 0.3%
Solvent 50% ethanol, pH 3.7, day 14, 60° C.
  Purity (%) at day 14 (60° C.): 0%
Solvent 50% ethanol, pH 4.0, day 0
  Purity(%) at day 0: 99.8 ± 0.2%
Solvent 50% ethanol, pH 4.0, day 14, 5° C.
  Purity(%) at day 14 (5° C.): 99.2 ± 0.3%
Solvent 50% ethanol, pH 4.0, day 14, 25° C.
  Purity(%) at day 14 (25° C.): 97.2 ± 0.3%
Solvent 50% ethanol, pH 4.0, day 14, 40° C.
  Purity(%) at day 14 (40° C.): 16.8 ± 0.4%
Solvent 50% ethanol, pH 4.0, day 14, 60° C.
  Purity (%) at day 14 (60° C.): 0%
Solvent 50% ethanol, pH 4.3, day 0
  Purity(%) at day 0: 99.7 ± 0.2%
Solvent 50% ethanol, pH 4.3, day 14, 5° C.
  Purity(%) at day 14 (5° C.): 99.1 ± 0.2%
Solvent 50% ethanol, pH 4.3, day 14, 25° C.
  Purity(%) at day 14 (25° C.): 97.2 ± 0.2%
Solvent 50% ethanol, pH 4.3, day 14, 40° C.
  Purity(%) at day 14 (40° C.): 14.9 ± 0.3%
Solvent 50% ethanol, pH 4.3, day 14, 60° C.
  Purity (%) at day 14 (60° C.): 0%
Solvent 50% ethanol, pH 4.6, day 0
  Purity(%) at day 0: 99.7 ± 0.3%
Solvent 50% ethanol, pH 4.6, day 14, 25° C.
  Purity(%) at day 14 (25° C.): 96.9 ± 0.3%
Solvent 50% ethanol, pH 4.6, day 14, 40° C.
  Purity(%) at day 14 (40° C.): 4.9 ± 0.3%
Solvent 50% ethanol, pH 4.6, day 14, 60° C.
  Purity (%) at day 14 (60° C.): 0%
Solvent 50% ethanol, pH 5.0, day 0
  Purity(%) at day 0: 99.6 ± 0.2%
Solvent 50% ethanol, pH 5.0, day 14, 25° C.
  Purity(%) at day 14 (25° C.): 93.1 ± 0.3%
Solvent 50% ethanol, pH 5.0, day 14, 40° C.
  Purity(%) at day 14 (40° C.): 2.3 ± 0.2%
Solvent 50% ethanol, pH 5.0, day 14, 60° C.
  Purity (%) at day 14 (60° C.): 0%
Solvent 50% ethanol, pH 6.0, day 0
  Purity(%) at day 0: 99.5 ± 0.3%
Solvent 50% ethanol, pH 6.0, day 14, 5° C.
  Purity(%) at day 14 (5° C.): 92.9 ± 0.4%
Solvent 50% ethanol, pH 6.0, day 14, 25° C.
  Purity(%) at day 14 (25° C.): 85.5 ± 0.3%
Solvent 50% ethanol, pH 6.0, day 14, 40° C.
  Purity(%) at day 14 (40° C.): 0%
Solvent 50% ethanol, pH 6.0, day 14, 60° C.
  Purity (%) at day 14 (60° C.): 0%
Solvent 50% ethanol, pH 7.0, day 0
  Purity(%) at day 0: 99.4 ± 0.3%
Solvent 50% ethanol, pH 7.0, day 14, 5° C.
  Purity(%) at day 14 (5° C.): 88.2 ± 0.3%
Solvent 50% ethanol, pH 7.0, day 14, 25° C.
  Purity(%) at day 14 (25° C.): 61.9 ± 0.4%
Solvent 50% ethanol, pH 7.0, day 14, 40° C.
  Purity(%) at day 14 (40° C.): 0%
Solvent 50% ethanol, pH 7.0, day 14, 60° C.
  Purity (%) at day 14 (60° C.): 0%
Solvent 50% ethanol, pH 8.0, day 0
  Purity(%) at day 0: 99.2 ± 0.3%
Solvent 50% ethanol, pH 8.0, day 14, 5° C.
  Purity(%) at day 14 (5° C.): 60.3 ± 0.4%
Solvent 50% ethanol, pH 8.0, day 14, 25° C.
  Purity(%) at day 14 (25° C.): 23.9 ± 0.4%
Solvent 50% ethanol, pH 8.0, day 14, 40° C.
  Purity(%) at day 14 (40° C.): 0%
Solvent 50% ethanol, pH 8.0, day 14, 60° C.
  Purity (%) at day 14 (60° C.): 0%
Solvent water, pH 1.0, day 0
  Purity(%) at day 0: 99.1 ± 0.3%
Solvent water, pH 1.0, day 14, 5° C.
  Purity(%) at day 14 (5° C.): 90.8 ± 0.3%
Solvent water, pH 1.0, day 14, 25° C.
  Purity(%) at day 14 (25° C.): 62.2 ± 0.4%
Solvent water, pH 1.0, day 14, 40° C.
  Purity(%) at day 14 (40° C.): 0%
Solvent water, pH 1.0, day 14, 60° C.
  Purity (%) at day 14 (60° C.): 0%
Solvent water, pH 2.0, day 0
  Purity(%) at day 0: 99.3 ± 0.2%
Solvent water, pH 2.0, day 14, 5° C.
  Purity(%) at day 14 (5° C.): 96.3 ± 0.2%
Solvent water, pH 2.0, day 14, 25° C.
  Purity(%) at day 14 (25° C.): 83.3 ± 0.3%
Solvent water, pH 2.0, day 14, 40° C.
  Purity(%) at day 14 (40° C.): 0%
Solvent water, pH 2.0, day 14, 60° C.
  Purity (%) at day 14 (60° C.): 0%
Solvent water, pH 3.0, day 0
  Purity(%) at day 0: 99.5 ± 0.2%
Solvent water, pH 3.0, day 14, 25° C.
  Purity(%) at day 14 (25° C.): 88.5 ± 0.2%
Solvent water, pH 3.0, day 14, 40° C.
  Purity(%) at day 14 (40° C.): 2.5 ± 0.2%
Solvent water, pH 3.0, day 14, 60° C.
  Purity (%) at day 14 (60° C.): 0%
Solvent water, pH 3.7, day 0
  Purity(%) at day 0: 99.5 ± 0.1%
Solvent water, pH 3.7, day 14, 25° C.
  Purity(%) at day 14 (25° C.): 96.1 ± 0.1%
Solvent water, pH 3.7, day 14, 40° C.
  Purity(%) at day 14 (40° C.): 14.5 ± 0.3%
Solvent water, pH 3.7, day 14, 60° C.
  Purity (%) at day 14 (60° C.): 0%
Solvent water, pH 4.0, day 0
  Purity(%) at day 0: 99.6 ± 0.1%
Solvent water, pH 4.0, day 14, 25° C.
  Purity(%) at day 14 (25° C.): 96.6 ± 0.2%
Solvent water, pH 4.0, day 14, 40° C.
  Purity(%) at day 14 (40° C.): 14.5 ± 0.3%
Solvent water, pH 4.0, day 14, 60° C.
  Purity (%) at day 14 (60° C.): 0%
Solvent water, pH 4.3, day 0
  Purity(%) at day 0: 99.7 ± 0.1%
Solvent water, pH 4.3, day 14, 25° C.
  Purity(%) at day 14 (25° C.): 96.6 ± 0.1%
Solvent water, pH 4.3, day 14, 40° C.
  Purity(%) at day 14 (40° C.): 12.9 ± 0.2%
Solvent water, pH 4.3, day 14, 60° C.
  Purity (%) at day 14 (60° C.): 0%
Solvent water, pH 4.6, day 0
  Purity(%) at day 0: 99.5 ± 0.2%
Solvent water, pH 4.6, day 14, 25° C.
  Purity(%) at day 14 (25° C.): 96.5 ± 0.2%
Solvent water, pH 4.6, day 14, 40° C.
  Purity(%) at day 14 (40° C.): 3.6 ± 0.2%
Solvent water, pH 4.6, day 14, 60° C.
  Purity (%) at day 14 (60° C.): 0%
Solvent water, pH 5.0, day 0
  Purity(%) at day 0: 99.5 ± 0.1%
Solvent water, pH 5.0, day 14, 5° C.
  Purity(%) at day 14 (5° C.): 97.3 ± 0.1%
Solvent water, pH 5.0, day 14, 25° C.
  Purity(%) at day 14 (25° C.): 92.5 ± 0.2%
Solvent water, pH 5.0, day 14, 40° C.
  Purity(%) at day 14 (40° C.): 1.0%
Solvent water, pH 5.0, day 14, 60° C.
  Purity (%) at day 14 (60° C.): 0%
Solvent water, pH 6.0, day 0
  Purity(%) at day 0: 99.4 ± 0.3%
Solvent water, pH 6.0, day 14, 5° C.
  Purity(%) at day 14 (5° C.): 92.1 ± 0.2%
Solvent water, pH 6.0, day 14, 25° C.
  Purity(%) at day 14 (25° C.): 84.7 ± 0.3%
Solvent water, pH 6.0, day 14, 40° C.
  Purity(%) at day 14 (40° C.): 0%
Solvent water, pH 6.0, day 14, 60° C.
  Purity (%) at day 14 (60° C.): 0%
Solvent water, pH 7.0, day 0
  Purity(%) at day 0: 99.2 ± 0.3%
Solvent water, pH 7.0, day 14, 5° C.
  Purity(%) at day 14 (5° C.): 87.9 ± 0.3%
Solvent water, pH 7.0, day 14, 25° C.
  Purity(%) at day 14 (25° C.): 59.8 ± 0.3%
Solvent water, pH 7.0, day 14, 40° C.
  Purity(%) at day 14 (40° C.): 0%
Solvent water, pH 7.0, day 14, 60° C.
  Purity (%) at day 14 (60° C.): 0%
Solvent water, pH 8.0, day 14, 5° C.
  Purity(%) at day 14 (5° C.): 57.9 ± 0.3%
Solvent water, pH 8.0, day 14, 25° C.
  Purity(%) at day 14 (25° C.): 21.7 ± 0.4%
Solvent water, pH 8.0, day 14, 40° C.
  Purity(%) at day 14 (40° C.): 0%
Solvent water, pH 8.0, day 14, 60° C.
  Purity (%) at day 14 (60° C.): 0%
